Like-named read-outs stand apart in the source and are kept apart here.

The results in this text go back to patent US20130096092A1, “THIOETHER PRODRUG COMPOSITIONS AS ANTI-HIV AND ANTI-RETROVIRAL AGENTS” (Health and Human Services, priority 2010, published 2013).

A short description of series [1]: Compound toxicity in PBMC. The format is cell-based. The following applies: human, peripheral blood mononuclear cells (PBMC); Table 2; read-out: TC50, PBMC. As to the method:
(§1) The HIV cytoprotection assay has been previously described in Weislow, O, S. et al., J. Natl. Cancer Inst. 81, 577-86 (1989); Rice, W. G. et al., Antimicrob. Agents Chemother. 41, 419-26 (1997), and Rice, W. G. et al., Proc. Natl. Acad. Sci. USA 90, 9721-4 (1993). CEM-SS cells infected with HIV-1IIIB or monocyte-macrophages infected with HIVBaL were incubated with the compound for 6 days and antiviral activity determined by measurement of cell survival (cytoprotection) using XTT (2,3-bis(2-methoxy-4-nitro-5-sulfophenyl)-5-[(phenylamino)carbonyl]-2H-tetrazolium hydroxide) dye reduction. AZT was used as a positive control for all assays with each assay performed in duplicate with triplicate determinations per condition. Compound toxicity was measured the same way in uninfected CEM-SS cells. Effective antiviral concentrations providing 50% cytoprotection (EC50) and cellular growth inhibitory concentrations causing 50% cytotoxicity (IC50) were calculated.
(§2) Four compounds along with a positive control were assayed for antiviral activity using the XTT cytoprotection assay as described in Example 4. The cells used were CEM-SS cells infected with HIV-1RF, monocyte-macrophages infected with HIVBaL, and peripheral blood mononuclear cells (PBMC) infected with HIV-1HT/92/599. The compounds are compound 8 (comparative), 7a (invention), 10 (invention), 11 (invention), and 12 (invention).

Series [2] can be described thus: Human plasma stability (RP-HPLC). In kind it is in vitro ADME. The following applies: 20 μM in 50% human plasma in PBS, 37° C., 1 hour; FIG. 7. As to the method:
Compound 8 (comparative), compound 7a (invention), compound 10 (invention), compound 11 (invention), and compound 12 (invention) were dissolved in DMSO and diluted into 50% human plasma in PBS buffer at a final concentration of 20 μM. The samples were incubated at 37° C. for 1 hour and the amount of intact compound measured using RP-HPLC. The results are illustrated in FIG. 7.

The next series deals with monocyte-macrophages. In words: Compound toxicity in monocyte-macrophages. In kind it is cell-based. The settings on record: Table 2; read-out: TC50, Monocyte/Macrophage.
Series [3] can be described thus: Compound toxicity in monocyte-macrophages. The following applies: human, monocyte-macrophages; Table 1; read-out: TC50, Monocytes-macrophages. In kind it is cell-based.
Series [4] relates to HIV-1IIIB. In words: XTT cytoprotection assay, CEM-SS cells infected with HIV-1IIIB. The format is cell-based. The following applies: Human immunodeficiency virus 1, 144 h, Table 1, 6 days, read-out: EC50 (50% cytoprotection), CEM-SS cells. As to the method: as §1
Three compounds were assayed for antiviral activity using the XTT cytoprotection assay in CEM-SS cells infected with HIV-1IIIB and in monocyte-macrophages infected with HIVBaL and assayed for virucidal activity. The compounds are compound 7a (invention), 8 (comparative), and 7f (comparative).
On the technique in general: Tetrazolium assays rely on reduction of a dye to a coloured formazan, in cell work by metabolically active cells.

The nature of series [5]: Stability in vaginal fluid simulant (RP-HPLC). The format is physicochemical. The following applies: 400 μM; 25° C., 30 days; FIG. 6; compared with compound 8. As to the method: The final concentration of the compounds was 400 μM. The samples were incubated at 25° C. over the course of 30 days and the amount of intact compound was measured over time using RP-HPLC. […] The results are illustrated in FIG. 6.

A further series deals with HIV-1RF. Description: XTT cytoprotection assay, CEM-SS cells infected with HIV-1RF. The settings on record: Human immunodeficiency virus 1, Table 2, read-out: EC50 (50% cytoprotection), CEM-SS cells. The format is cell-based. As to the method:
as §1, §2

The subject of the next series is HIVBaL. Description: XTT cytoprotection assay, monocyte-macrophages infected with HIVBaL. In kind it is cell-based, HIV. The settings on record: for EC50: monocyte-macrophages infected with HIVBaL, XTT. As to the method:
as §1
Three compounds were assayed for antiviral activity using the XTT cytoprotection assay in CEM-SS cells infected with HIV-1IIIB and in monocyte-macrophages infected with HIVBaL and assayed for virucidal activity. The compounds are compound 7a (invention), 8 (comparative), and 7f (comparative). The structure of compound 8 is as follows:
as §2

A further series deals with HIV-1HT/92/599. In words: XTT cytoprotection assay, PBMC infected with HIV-1HT/92/599. In kind it is cell-based. The settings on record: Human immunodeficiency virus 1; Table 2; PBMC infected with HIV-1HT/92/599, XTT; read-out: EC50 (50% cytoprotection), PBMC. As to the method: as §1, §2
A short description of series [6]: pH stability in buffers (RP-HPLC). The format is physicochemical. The settings on record: 250 μM; pH 5.0, 7.0, 9.0 buffers; 25° C., 30 days; FIG. 5. As to the method:
This example illustrates the pH stability of compound 7a. Compound 7a was dissolved in DMSO and diluted into the 100 mM sodium acetate buffer at pH 5.0 (shown in FIG. 5 as diamonds), 100 mM sodium phosphate buffer at pH 7.0 (shown in FIG. 5 as circles), and 100 mM Tris-HCl buffer at pH 9.0 (shown in FIG. 5 as squares) at a final compound concentration of 250 μM. The samples were incubated at 25° C. over the course of 30 days and the amount of intact compound was measured over time using RP-HPLC. The results are illustrated in FIG. 5.

The subject of series [7] is HIV-1IIIB. In words: Cell-free virus inactivation (virucidal) assay. The format is cell-based. The following applies: for EC50: Human immunodeficiency virus 1, Table 1, HIV-1IIIB incubated with compound 2 h at 37° C., then added to CEM-SS cells. As to the method:
Cell-free virus inactivation assays were performed as previously described in Song, Y. et al., Bioorg. Med. Chem. 10, 1263-73 (2002). Briefly, HIV-1IIIB was incubated with three concentrations of each compound for 2 h at 37° C. and then pelleted at 4° C. for 90 minutes at 18,000×g. Following several washes with DPBS to remove unbound compound, the virus was resuspended in cell culture media and added to CEM-SS cells at a titer to yield 85-90% cell killing at day 6 post-infection.

Series [8] can be described thus: Compound toxicity by XTT in uninfected CEM-SS cells. The format is cell-based. The settings on record: human; Table 1; uninfected CEM-SS cells, XTT; read-out: TC50, CEM-SS cells. As to the method: as §1
The test system of a further series is CEM-SS cells. The series is described as above. The format is cell-based. The following applies: Table 2; read-out: TC50, CEM-SS cells. As to the method:
as §1

Setting [9] is: Human immunodeficiency virus 1, 144 h, Table 1, 6 days, read-out: EC50 (50% cytoprotection), Monocytes-macrophages.
Where [10] appears, read: Human immunodeficiency virus 1, Table 2, read-out: EC50 (50% cytoprotection), Monocyte/Macrophage.

Take `CC(C)C(=O)Oc1ccc(CSc2ccccc2C(=O)NCCC(N)=O)cc1` [Compound 7a, N-{2-[4-(isopropylcarbonyloxy)benzylthio]benzoyl}-β-alaninamide]: the CC50 at 6 days in series [1], in series [3] and in series [8] was greater than 100 µM in each case. For the same compound, in [2], the “stability in human plasma, intact compound” value is “did not exhibit stability”. Besides, the CC50 in the series on monocyte-macrophages and in the series with CEM-SS cells was greater than 100 µM in each case. Further, the EC50 with HIV-1IIIB [4] was 0.2 µM; in the series on HIV-1RF, 0.2 µM; in the series on HIVBaL (setting [9]), 0.6 µM; in the series on HIVBaL (setting [10]), 0.62 µM; in the series with HIV-1HT/92/599, 4.06 µM; in the series with HIV-1IIIB [7], 9.8 µM. The “stability in vaginal fluid simulant, intact compound over time” value in series [5] was “significantly more stable”. For the same compound, the “pH stability, intact compound over time” value in series [6] is given as “most stable at acidic pH”.

For the compound `CC(=O)Sc1ccccc1C(=O)NCCC(N)=O` [Compound 8], the CC50 at 6 days in [1], in [3] and in series [8] was greater than 100 µM in each case. In addition, the CC50 in the series with monocyte-macrophages and in the series with CEM-SS cells was greater than 100 µM each time. The EC50 came out at 0.6 µM in the series on HIV-1IIIB [4]; 0.6 µM with HIV-1RF; 2 µM in the series with HIVBaL (setting [9]); 1.97 µM with HIVBaL (setting [10]); 5.74 µM in the series on HIV-1HT/92/599; 0.9 µM in the series on HIV-1IIIB [7].

With `NC(=O)CCNC(=O)c1ccccc1SCc1ccccc1` [Compound 7f], the CC50 at 6 days in [3] and in [8] was greater than 100 µM each time. In addition, the EC50 in the series with HIV-1IIIB [4] is 34.9 µM; with HIVBaL (setting [9]), greater than 100 µM; with HIV-1IIIB [7], greater than 100 µM. Besides, the “activity in cytoprotection assay against infected monocytes-macrophages” value in the series with HIVBaL (as compared to compound 7a) was “inactive”. In addition, the “activity in the antiviral assay against HIV-1IIIB” value with HIV-1IIIB [7] (virucidal assay, as compared to compound 7a) was “inactive”.
